Source: ChEMBL document CHEMBL5465560, “Selectivity Literature for EUbOPEN Chemogenomic Library” (2024)

Key:
[1] = molecular target: T1, Kinase suppressor of Ras 1 (Homo sapiens) (UniProt Q8IVT5); experiment: Selectivity interaction (Kinase panel (KiNativ target engagement assay in Jurkat cells)) EUB0001635a KSR1; assay type: cell-based; conditions: at 1 µM
T1 sequence (whole entry): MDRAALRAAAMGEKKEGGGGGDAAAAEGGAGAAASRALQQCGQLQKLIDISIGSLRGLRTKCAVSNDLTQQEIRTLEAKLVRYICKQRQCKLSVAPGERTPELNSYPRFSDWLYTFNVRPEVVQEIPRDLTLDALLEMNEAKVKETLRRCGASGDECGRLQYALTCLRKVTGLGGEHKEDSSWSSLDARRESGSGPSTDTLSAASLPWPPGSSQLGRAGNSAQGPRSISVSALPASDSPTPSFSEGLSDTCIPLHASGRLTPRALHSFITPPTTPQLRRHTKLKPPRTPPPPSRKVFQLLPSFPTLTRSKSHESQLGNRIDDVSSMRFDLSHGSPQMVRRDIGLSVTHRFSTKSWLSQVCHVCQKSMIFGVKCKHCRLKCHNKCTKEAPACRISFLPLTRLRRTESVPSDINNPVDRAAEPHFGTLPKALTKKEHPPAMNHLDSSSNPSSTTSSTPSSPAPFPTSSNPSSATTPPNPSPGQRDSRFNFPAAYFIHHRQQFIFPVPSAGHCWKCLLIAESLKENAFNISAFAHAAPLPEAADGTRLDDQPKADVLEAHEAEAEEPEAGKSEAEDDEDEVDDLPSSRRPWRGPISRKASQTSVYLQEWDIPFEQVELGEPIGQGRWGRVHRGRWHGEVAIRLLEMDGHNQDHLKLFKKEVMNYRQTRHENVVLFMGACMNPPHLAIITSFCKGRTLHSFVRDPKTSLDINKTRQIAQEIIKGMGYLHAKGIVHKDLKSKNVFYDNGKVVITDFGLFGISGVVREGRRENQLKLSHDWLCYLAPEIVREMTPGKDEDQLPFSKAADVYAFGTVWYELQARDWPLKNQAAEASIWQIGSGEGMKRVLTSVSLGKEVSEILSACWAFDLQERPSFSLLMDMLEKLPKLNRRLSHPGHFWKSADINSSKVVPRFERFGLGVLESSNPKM

[2] = test system: Epidermal growth factor receptor (Homo sapiens), P00533 [UNDEFINED MUTATION]; experiment: Selectivity interaction (KinomeScan (DiscoverX)) EUB0001079a EGFR; conditions: at 1 µM
Epidermal growth factor receptor (Homo sapiens), P00533 [UNDEFINED MUTATION], sequence (P00533 whole entry, looked up, stated change not applied): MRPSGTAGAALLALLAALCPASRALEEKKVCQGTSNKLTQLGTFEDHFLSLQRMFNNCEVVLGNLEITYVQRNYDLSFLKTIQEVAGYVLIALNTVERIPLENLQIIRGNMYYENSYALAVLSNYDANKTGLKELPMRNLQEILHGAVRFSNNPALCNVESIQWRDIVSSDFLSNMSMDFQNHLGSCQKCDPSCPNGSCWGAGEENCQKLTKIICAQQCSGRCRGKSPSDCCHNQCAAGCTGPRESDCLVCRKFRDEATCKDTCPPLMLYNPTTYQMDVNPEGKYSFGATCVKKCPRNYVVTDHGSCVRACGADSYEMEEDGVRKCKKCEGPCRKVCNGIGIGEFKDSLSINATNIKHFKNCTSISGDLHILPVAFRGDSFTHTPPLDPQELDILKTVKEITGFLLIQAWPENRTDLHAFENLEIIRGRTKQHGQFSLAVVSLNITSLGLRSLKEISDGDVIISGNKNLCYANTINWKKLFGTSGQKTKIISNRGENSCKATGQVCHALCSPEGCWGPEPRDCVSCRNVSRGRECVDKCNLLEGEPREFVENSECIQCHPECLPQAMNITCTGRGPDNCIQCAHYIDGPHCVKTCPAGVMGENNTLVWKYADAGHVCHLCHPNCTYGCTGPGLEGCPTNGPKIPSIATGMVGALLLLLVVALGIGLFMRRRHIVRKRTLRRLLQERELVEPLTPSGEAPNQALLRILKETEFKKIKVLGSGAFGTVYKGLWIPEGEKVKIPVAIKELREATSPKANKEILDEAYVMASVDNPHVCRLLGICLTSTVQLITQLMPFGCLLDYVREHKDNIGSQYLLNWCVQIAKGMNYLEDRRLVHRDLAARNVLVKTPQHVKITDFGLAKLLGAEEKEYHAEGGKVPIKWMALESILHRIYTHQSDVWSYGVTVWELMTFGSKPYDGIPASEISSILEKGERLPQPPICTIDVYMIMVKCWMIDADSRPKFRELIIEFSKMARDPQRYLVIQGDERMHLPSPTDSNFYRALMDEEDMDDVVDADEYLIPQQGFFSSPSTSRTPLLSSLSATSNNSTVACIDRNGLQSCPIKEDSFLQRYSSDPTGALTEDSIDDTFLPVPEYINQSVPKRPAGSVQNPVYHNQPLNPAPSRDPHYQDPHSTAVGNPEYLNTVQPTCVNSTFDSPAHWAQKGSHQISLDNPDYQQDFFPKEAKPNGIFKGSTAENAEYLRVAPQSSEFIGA

[3] = test system: Mast/stem cell growth factor receptor Kit (Homo sapiens), P10721 [D816V]; conditions: at 10 µM
Mast/stem cell growth factor receptor Kit (Homo sapiens), P10721 [D816V], sequence (P10721 whole entry D816V): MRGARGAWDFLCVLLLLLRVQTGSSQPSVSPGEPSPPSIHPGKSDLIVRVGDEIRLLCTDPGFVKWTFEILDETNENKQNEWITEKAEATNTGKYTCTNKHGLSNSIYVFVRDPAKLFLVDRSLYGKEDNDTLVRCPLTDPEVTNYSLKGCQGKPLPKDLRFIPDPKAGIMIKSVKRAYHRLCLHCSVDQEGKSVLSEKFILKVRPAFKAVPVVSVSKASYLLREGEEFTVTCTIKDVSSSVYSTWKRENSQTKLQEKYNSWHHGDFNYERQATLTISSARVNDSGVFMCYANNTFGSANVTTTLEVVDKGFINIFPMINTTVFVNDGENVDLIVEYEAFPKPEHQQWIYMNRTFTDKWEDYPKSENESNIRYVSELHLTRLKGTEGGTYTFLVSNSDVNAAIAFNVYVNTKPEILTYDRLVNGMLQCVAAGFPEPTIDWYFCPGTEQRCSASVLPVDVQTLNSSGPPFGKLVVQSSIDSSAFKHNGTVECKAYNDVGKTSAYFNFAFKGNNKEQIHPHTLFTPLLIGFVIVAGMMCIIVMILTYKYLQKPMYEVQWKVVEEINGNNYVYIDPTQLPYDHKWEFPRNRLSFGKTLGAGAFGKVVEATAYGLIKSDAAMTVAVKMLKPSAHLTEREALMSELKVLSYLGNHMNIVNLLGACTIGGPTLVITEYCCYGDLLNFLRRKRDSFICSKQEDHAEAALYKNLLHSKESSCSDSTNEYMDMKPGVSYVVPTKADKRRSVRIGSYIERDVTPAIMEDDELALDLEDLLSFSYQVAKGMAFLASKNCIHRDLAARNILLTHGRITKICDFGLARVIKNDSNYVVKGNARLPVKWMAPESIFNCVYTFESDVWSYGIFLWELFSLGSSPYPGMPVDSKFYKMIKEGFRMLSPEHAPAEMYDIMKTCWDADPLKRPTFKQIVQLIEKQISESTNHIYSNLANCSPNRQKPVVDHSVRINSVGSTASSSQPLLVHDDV

[4] = molecular target: T2, Serine/threonine-protein kinase Nek1 (Homo sapiens) (UniProt Q96PY6); experiment: Selectivity interaction (Kinase screening (Nanosyn)) EUB0000604a NEK1
T2 sequence (whole entry): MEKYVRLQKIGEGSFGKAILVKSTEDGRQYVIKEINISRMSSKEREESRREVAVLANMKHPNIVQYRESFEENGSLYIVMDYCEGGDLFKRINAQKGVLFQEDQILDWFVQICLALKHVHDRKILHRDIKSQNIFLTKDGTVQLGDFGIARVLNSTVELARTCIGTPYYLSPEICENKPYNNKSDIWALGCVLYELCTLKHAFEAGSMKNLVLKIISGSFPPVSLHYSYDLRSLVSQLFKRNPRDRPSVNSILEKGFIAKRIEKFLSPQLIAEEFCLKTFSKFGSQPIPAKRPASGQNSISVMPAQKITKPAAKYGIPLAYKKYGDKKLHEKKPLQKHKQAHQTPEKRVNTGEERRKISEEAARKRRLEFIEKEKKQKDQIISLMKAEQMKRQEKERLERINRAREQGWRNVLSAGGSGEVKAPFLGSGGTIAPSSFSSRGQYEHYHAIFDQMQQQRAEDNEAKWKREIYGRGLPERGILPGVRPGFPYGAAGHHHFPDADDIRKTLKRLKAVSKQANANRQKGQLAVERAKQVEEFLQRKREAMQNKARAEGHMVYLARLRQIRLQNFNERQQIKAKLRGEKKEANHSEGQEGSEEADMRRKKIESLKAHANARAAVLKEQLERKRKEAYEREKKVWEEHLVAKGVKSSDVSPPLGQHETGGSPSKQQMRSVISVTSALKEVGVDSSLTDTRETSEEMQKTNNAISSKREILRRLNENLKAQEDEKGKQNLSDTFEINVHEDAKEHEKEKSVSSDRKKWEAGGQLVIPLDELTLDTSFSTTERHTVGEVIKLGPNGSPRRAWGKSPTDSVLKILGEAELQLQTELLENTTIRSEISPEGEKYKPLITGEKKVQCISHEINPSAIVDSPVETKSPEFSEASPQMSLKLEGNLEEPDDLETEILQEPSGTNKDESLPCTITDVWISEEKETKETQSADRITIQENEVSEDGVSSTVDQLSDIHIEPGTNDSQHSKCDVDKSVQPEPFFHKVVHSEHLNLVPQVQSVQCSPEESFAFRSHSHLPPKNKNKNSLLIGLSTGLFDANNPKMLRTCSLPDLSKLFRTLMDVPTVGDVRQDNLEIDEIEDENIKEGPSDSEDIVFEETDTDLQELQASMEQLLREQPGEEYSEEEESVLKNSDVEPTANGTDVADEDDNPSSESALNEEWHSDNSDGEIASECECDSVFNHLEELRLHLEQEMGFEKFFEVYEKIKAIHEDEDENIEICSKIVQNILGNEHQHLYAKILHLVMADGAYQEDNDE

[5] = molecular target: Nav1.5 (SCN5A) (Homo sapiens, UniProt Q14524); experiment: Selectivity interaction (Panel of kinases, GPCRs, ion channels and transporters (enzymatic assay)) EUB0000266bCl SCN5A
Nav1.5 (SCN5A), sequence (Q14524 whole entry): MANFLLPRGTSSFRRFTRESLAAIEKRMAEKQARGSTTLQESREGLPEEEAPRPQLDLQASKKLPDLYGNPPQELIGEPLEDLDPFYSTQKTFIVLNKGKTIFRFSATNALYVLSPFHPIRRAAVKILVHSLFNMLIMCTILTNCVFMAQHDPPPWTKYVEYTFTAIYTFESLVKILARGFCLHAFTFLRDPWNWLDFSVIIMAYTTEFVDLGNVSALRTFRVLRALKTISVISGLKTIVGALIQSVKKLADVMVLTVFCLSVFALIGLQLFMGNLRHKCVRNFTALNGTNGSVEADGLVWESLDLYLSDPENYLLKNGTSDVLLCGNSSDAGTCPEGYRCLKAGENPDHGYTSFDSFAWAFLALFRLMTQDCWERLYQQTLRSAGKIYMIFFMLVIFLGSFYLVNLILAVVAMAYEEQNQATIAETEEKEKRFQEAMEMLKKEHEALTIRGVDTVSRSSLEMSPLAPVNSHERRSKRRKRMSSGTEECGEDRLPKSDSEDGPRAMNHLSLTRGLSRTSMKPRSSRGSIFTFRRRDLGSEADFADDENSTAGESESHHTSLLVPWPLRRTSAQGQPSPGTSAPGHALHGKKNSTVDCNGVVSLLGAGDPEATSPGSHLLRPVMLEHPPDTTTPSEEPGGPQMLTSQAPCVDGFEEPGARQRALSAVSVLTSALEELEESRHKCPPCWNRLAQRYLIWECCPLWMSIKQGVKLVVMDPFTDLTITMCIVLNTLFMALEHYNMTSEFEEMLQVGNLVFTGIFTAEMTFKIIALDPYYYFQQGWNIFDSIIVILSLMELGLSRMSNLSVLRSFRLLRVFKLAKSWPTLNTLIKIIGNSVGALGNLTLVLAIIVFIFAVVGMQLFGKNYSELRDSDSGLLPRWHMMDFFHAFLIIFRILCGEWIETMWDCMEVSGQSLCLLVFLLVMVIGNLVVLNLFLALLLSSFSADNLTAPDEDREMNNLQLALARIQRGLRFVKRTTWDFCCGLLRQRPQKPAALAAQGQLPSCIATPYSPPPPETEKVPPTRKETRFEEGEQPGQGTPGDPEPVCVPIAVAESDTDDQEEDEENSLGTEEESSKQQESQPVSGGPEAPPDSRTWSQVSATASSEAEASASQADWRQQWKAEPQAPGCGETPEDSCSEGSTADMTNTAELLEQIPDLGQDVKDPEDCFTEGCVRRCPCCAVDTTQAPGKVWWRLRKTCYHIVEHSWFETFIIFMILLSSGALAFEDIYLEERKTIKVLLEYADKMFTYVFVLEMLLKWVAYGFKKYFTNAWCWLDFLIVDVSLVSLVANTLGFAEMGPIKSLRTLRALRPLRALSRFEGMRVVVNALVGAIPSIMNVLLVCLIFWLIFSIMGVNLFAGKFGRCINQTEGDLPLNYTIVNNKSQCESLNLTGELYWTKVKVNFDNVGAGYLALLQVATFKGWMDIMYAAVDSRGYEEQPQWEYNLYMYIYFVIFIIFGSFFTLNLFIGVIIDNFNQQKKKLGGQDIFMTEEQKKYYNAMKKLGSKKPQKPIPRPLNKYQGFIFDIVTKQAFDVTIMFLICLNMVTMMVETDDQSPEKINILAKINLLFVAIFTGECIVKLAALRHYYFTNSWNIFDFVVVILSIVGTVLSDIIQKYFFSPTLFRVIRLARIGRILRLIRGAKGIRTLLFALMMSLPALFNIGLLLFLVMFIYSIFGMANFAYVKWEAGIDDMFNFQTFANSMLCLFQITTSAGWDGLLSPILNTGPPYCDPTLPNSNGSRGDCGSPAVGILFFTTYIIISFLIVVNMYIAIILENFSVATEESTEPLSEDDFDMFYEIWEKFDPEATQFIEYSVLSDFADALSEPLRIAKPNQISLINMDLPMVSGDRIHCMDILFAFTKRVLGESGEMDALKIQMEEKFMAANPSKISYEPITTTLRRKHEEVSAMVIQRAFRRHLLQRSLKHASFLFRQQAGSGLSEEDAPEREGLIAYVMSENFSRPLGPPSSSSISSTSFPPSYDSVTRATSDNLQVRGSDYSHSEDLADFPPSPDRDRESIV

[6] = molecular target: Ribosomal protein S6 kinase alpha-3 (Homo sapiens, UniProt P51812); experiment: Selectivity interaction (ActivX KiNativ screen (kinase selectivity in THP-1 cell lysates)) EUB0000639a RPS6KA3; assay type: subcellular; conditions: lysate, at 0.2 µM
Ribosomal protein S6 kinase alpha-3, sequence (P51812 whole entry): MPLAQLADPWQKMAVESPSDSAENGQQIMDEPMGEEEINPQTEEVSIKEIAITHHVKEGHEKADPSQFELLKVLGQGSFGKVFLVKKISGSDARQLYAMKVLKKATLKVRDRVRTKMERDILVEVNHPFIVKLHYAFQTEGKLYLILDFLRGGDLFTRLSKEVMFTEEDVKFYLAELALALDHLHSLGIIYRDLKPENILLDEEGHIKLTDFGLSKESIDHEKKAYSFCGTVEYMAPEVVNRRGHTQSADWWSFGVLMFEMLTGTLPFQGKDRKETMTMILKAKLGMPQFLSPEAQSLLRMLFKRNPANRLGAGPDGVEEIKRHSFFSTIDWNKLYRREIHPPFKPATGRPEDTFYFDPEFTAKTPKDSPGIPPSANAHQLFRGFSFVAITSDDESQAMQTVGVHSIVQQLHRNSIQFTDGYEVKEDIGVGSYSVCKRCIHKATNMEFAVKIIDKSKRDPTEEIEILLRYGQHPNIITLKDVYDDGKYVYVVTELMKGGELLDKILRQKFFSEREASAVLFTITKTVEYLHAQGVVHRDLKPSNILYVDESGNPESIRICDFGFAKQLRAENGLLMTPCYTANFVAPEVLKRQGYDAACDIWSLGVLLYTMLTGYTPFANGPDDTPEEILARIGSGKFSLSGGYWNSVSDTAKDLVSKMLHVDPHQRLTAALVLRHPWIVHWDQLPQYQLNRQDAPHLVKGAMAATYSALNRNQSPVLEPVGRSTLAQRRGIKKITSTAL

`C=CC(=O)Nc1ccc(C(=O)Nc2[nH]nc3c2CN(C(=O)N[C@H](CN(C)C)c2ccccc2)C3(C)C)cc1` showed a % of engagement [1] of -1.6%.
Compound `Nc1cnc(N2CCc3cc(S(=O)(=O)Nc4c(F)cc(Cl)cc4F)cc(N4CCCC4=O)c32)nc1` [TP-020n] has a % of control [2] of 63%.
For `Cc1cc([C@@H](C)Nc2ccccc2C(=O)O)c2nc(N3CCOCC3)cc(=O)n2c1` [AZD-6482], the % of control [3] was 81%.
`Cc1cnc(Nc2ccc(F)cc2Cl)nc1-c1c[nH]c(C(=O)N[C@H](CO)c2cccc(Cl)c2)c1` showed a % of inhibition [4] of 6%.
For `CCn1c(-c2nc3cc(C(=O)N4CCCC(N)C4)ccc3n2C)cc2ccccc21` (stereo unspecified), the XC50 [5] was 31.6 µM.
Work on `CC[C@@H]1[C@H](F)C(=O)N[C@@H]1COc1nccc2cc(C(N)=O)c(OC)cc12` [ZIMLOVISERTIB] yielded a % of inhibition [6] of 5.4%.
